{
  "source": "paper PMC5192466",
  "about": "“Kunitz-Type Peptide HCRG21 from the Sea Anemone Heteractis crispa Is a Full Antagonist of the TRPV1 Receptor” (Marine Drugs, 2016)",
  "key": {"[1]": {"system": "rKv1.5", "experiment": "Kv1.5 currents, two-electrode voltage-clamp in Xenopus laevis oocytes", "format": "cell-based", "details": "10 μM peptide, n ≥ 3; holding −90 mV, 500 ms to 0 mV; ND96 pH 7.4", "description": "(§1) In order to characterize HCRG21 functionally, recombinant HCRG21 was, at a concentration of 10 μM, tested for its activity against an 8 voltage-gated potassium channels (Kv1.1–Kv1.6, hERG, and Shaker IR) and the vanilloid receptor 1 (TRPV1).\n(§2) Figure 4 Activity of rHCRG21 on Kv channels expressed in X. laevis oocytes. Traces shown are representative of at least three independent experiments (n ≥ 3). The dotted line indicates the zero current level. The asterisk (*) distinguishes the steady-state current after application of 10 μM peptide.\n(§3) For the expression of rKv1.1, hKv1.3, rKv1.4, rKv1.5, rKv1.6, Shaker IR, hERG, and TRPV1 in Xenopus oocytes, the linearized plasmids were transcribed using the T7 or SP6 mMESSAGE-mMACHINE transcription kit (Ambion, Austin, TX, USA). The harvesting of stage V–VI oocytes from anaesthetized female Xenopus laevis frog was previously described. […]\n(§4) Two-electrode voltage-clamp recordings were performed at room temperature (18–22 °C) using a Geneclamp 500 amplifier (Molecular Devices, Sunnyvale, CA, USA) controlled by a pClamp data acquisition system (Axon Instruments, Foster City, CA, USA). Whole cell currents from oocytes were recorded 1–4 days after injection. […] TRPV1 currents were measured in ND96 solution using a protocol of −90 mV during 400 s. […]"}, "[2]": {"system": "rKv1.6", "experiment": "Kv1.6 currents, two-electrode voltage-clamp in Xenopus laevis oocytes", "format": "cell-based", "details": "10 μM peptide, n ≥ 3; holding −90 mV, 500 ms to 0 mV; ND96 pH 7.4", "description": "as §1, §2, §3, §4"}, "[3]": {"target": "T1, TRPV1 (Rattus norvegicus, UniProt O35433)", "T1 construct": "expressed in transfected cells; host or cells: Xenopus laevis oocytes injected with cRNA", "T1 sequence (O35433 whole entry)": "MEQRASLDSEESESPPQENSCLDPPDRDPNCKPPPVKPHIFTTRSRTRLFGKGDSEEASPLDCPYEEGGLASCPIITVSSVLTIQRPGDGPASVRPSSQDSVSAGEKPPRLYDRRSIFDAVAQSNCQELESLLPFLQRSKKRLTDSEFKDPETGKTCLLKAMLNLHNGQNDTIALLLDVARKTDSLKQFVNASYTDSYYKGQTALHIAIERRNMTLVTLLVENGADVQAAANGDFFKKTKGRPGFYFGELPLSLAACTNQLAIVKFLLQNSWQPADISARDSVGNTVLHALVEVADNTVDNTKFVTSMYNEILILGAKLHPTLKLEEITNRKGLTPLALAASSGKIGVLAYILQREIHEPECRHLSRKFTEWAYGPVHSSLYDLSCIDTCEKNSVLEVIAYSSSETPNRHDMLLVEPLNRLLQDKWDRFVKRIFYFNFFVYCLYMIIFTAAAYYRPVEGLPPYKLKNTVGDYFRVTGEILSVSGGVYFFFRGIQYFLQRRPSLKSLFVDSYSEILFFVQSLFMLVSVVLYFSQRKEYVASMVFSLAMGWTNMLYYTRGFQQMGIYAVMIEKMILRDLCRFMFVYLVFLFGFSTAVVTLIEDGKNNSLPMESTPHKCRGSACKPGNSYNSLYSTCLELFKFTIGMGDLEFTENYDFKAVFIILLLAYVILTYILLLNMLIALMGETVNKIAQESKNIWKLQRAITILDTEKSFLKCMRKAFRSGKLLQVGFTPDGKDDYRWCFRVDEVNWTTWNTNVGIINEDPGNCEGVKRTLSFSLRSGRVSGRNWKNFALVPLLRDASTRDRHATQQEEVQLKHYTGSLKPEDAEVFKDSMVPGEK", "experiment": "cell-based", "description": "To control the expression level of the TRPV1 channels, experiments were initiated with a first activation of TRPV1 with 1 μM capsaicin (CAP). […] This activation gives an inward non-selective cation current. […] Before application of HCRG21, cells are washed with ND96 to remove any presence of […]. […] However, when rHCRG21 was co-applied together with the agonist capsaicin, a reduction of the current was observed (Figure 5b). […] A concentration–response curve was constructed in order to assess the concentration dependence of the rHCRG21 induced effect. The IC50 value yielded 6.9 ± 0.4 μM (Figure 5c).\nFigure 5 Activity profile of rHCRG21 (10 μM) on the TRPV1 receptor. The figures show the results of one representative experiment. Whole-cell current traces in control and rHCRG21 conditions are shown. […] All data represent the average of at least three independent experiments (n ≥ 3) and are presented as mean ± standard error; (c) Concentration–response curve for rHCRG21 on TRPV1 receptor.\nFor the expression of rKv1.1, hKv1.3, rKv1.4, rKv1.5, rKv1.6, Shaker IR, hERG, and TRPV1 in Xenopus oocytes, the linearized plasmids were transcribed using the T7 or SP6 mMESSAGE-mMACHINE transcription kit (Ambion, Austin, TX, USA). The harvesting of stage V–VI oocytes from anaesthetized female Xenopus laevis frog was previously described. Oocytes were injected with 50 nL of cRNA at a concentration of 1 ng/nL using a micro-injector (Drummond Scientific, Broomall, PA, USA). The oocytes were incubated in a solution containing (in mM): NaCl, 96; KCl, 2; CaCl2, 1.8; MgCl2, 2 and HEPES, 5 (pH 7.4), supplemented with 50 mg/L gentamicin sulfate.\nTwo-electrode voltage-clamp recordings were performed at room temperature (18–22 °C) using a Geneclamp 500 amplifier (Molecular Devices, Sunnyvale, CA, USA) controlled by a pClamp data acquisition system (Axon Instruments, Foster City, CA, USA). Whole cell currents from oocytes were recorded 1–4 days after injection. Bath solution composition was ND96 (in mM): NaCl, 96; KCl, 2; CaCl2, 1.8; MgCl2, 2, and HEPES, 5 (pH 7.4). Voltage and current electrodes were filled with 3 M KCl. Resistances of both electrodes were kept between 0.8 and 1.5 MΩ. The elicited currents were filtered and sampled at, respectively, 1 kHz and 10 kHz (for potassium currents) and at, respectively, 0.2 kHz and 0.5 kHz (for TRPV1 currents), using a four-pole low-pass Bessel filter. Leak subtraction was performed using a –P/4 protocol. KV1.1–KV1.6 and Shaker currents were evoked by 500 ms depolarizations to 0 mV followed by a 500 ms pulse to −50 mV, from a holding potential of −90 mV. Current traces of hERG channels were elicited by applying a +40 mV prepulse for 2 s followed by a step to −120 mV for 2 s. TRPV1 currents were measured in ND96 solution using a protocol of −90 mV during 400 s. The recording chamber was perfused at a rate of 2 mL·min^−1 with a ND96 solution. As previously described, capsaicin (2 μM) was used as an agonist and capsazepine (10 μM) as an antagonist of TRPV1. Capsaicin and capsazepine were purchased from Sigma. All data represent at least 3 independent experiments (n ≥ 3) in which independent experiments represent experiments on different cells expressing TRPV1 channel and are presented as mean ± standard error."}, "[4]": {"target": "trypsin", "experiment": "Trypsin inhibition (Dixon method, BAPNA substrate)", "format": "biochemical", "description": "(§5) The trypsin/α-chymotrypsin inhibitory activity of the peptide was tested through the standard procedure using N-α-benzoyl-D,L-arginine p-nitroanilide hydrochloride (BAPNA) and ethyl ester of N-benzoyl-L-tyrosine (BTEE) as a substrates, respectively. Determination of the trypsin/α-chymotrypsin inhibition constants of rHCRG21 was performed according to the method of Dixon using substrates concentrations of 133 and 65 mM. The concentration of both enzymes in the reaction mixture was 215 nM. Concentrations of the tested peptide ranged from 0 up to 3.2 mM. The constants were calculated based on the results of three parallel experiments. Computational error limits are in the range of 0.1%–0.5%."}, "[5]": {"system": "hKv1.3", "experiment": "Kv1.3 currents, two-electrode voltage-clamp in Xenopus laevis oocytes", "format": "cell-based", "details": "10 μM peptide, n ≥ 3; holding −90 mV, 500 ms to 0 mV; ND96 pH 7.4", "description": "as §1, §2, §3, §4"}, "[6]": {"system": "Shaker IR", "experiment": "Shaker IR currents, two-electrode voltage-clamp in Xenopus laevis oocytes", "format": "cell-based", "details": "10 μM peptide, n ≥ 3; holding −90 mV, 500 ms to 0 mV; ND96 pH 7.4", "description": "as §1, §2, §3, §4"}, "[7]": {"system": "hERG", "experiment": "hERG currents, two-electrode voltage-clamp in Xenopus laevis oocytes", "format": "cell-based", "details": "10 μM peptide, n ≥ 3; +40 mV prepulse 2 s, then −120 mV 2 s; ND96 pH 7.4", "description": "as §1, §2, §3, §4"}, "[8]": {"system": "rKv1.4", "experiment": "Kv1.4 currents, two-electrode voltage-clamp in Xenopus laevis oocytes", "format": "cell-based", "details": "10 μM peptide, n ≥ 3; holding −90 mV, 500 ms to 0 mV; ND96 pH 7.4", "description": "as §1, §2, §3, §4"}, "[9]": {"target": "α-chymotrypsin (Bos taurus, UniProt P00766)", "experiment": "α-Chymotrypsin inhibition (Dixon method, BTEE substrate)", "format": "biochemical", "details": "133 and 65 mM, enzyme 215 nM, peptide 0 up to 3.2 mM, three parallel experiments", "description": "as §5"}, "[10]": {"system": "rKv1.1", "experiment": "Kv1.1 currents, two-electrode voltage-clamp in Xenopus laevis oocytes", "format": "cell-based", "details": "10 μM peptide, n ≥ 3; holding −90 mV, 500 ms to 0 mV; ND96 pH 7.4", "description": "as §1, §2, §3, §4"}, "[11]": {"system": "Kv1.2", "experiment": "Kv1.2 currents, two-electrode voltage-clamp in Xenopus laevis oocytes", "format": "cell-based", "details": "10 μM peptide, n ≥ 3; holding −90 mV, 500 ms to 0 mV; ND96 pH 7.4", "description": "as §1, §2\nTwo-electrode voltage-clamp recordings were performed at room temperature (18–22 °C) using a Geneclamp 500 amplifier (Molecular Devices, Sunnyvale, CA, USA) controlled by a pClamp data acquisition system (Axon Instruments, Foster City, CA, USA). Whole cell currents from oocytes were recorded 1–4 days after injection. Bath solution composition was ND96 (in mM): NaCl, 96; KCl, 2; CaCl2, 1.8; MgCl2, 2, and HEPES, 5 (pH 7.4). Voltage and current electrodes were filled with 3 M KCl. Resistances of both electrodes were kept between 0.8 and 1.5 MΩ. The elicited currents were filtered and sampled at, respectively, 1 kHz and 10 kHz (for potassium currents) and at, respectively, 0.2 kHz and 0.5 kHz (for TRPV1 currents), using a four-pole low-pass Bessel filter. […] TRPV1 currents were measured in ND96 solution using a protocol of −90 mV during 400 s. […]"}},
  "note": "“Also recorded” adds a separate entry of the source. Bridges are numbered along the chain shown (N, C = ends). Where no end group is shown, it is not given here.",
  "data": [
    {"sequence": "RGICSEPKVVGPCTAYFRRFYFDSETGKCTPFIYGGCEGNGNNFETLRACRAICRA (disulfide 4-54, 13-37, 29-50 (inferred)) [rHCRG21]", "values": [
      {"measurement": "activity on Kv1.5", "setting": "[1]", "result": "did not exert any activity"},
      {"measurement": "activity on Kv1.6", "setting": "[2]", "result": "did not exert any activity"},
      {"measurement": "inhibition of capsaicin-induced TRPV1 current", "setting": "[3]; 10 μM peptide co-applied with capsaicin (2 μM), −90 mV, ND96 pH 7.4, mean ± standard error, n ≥ 3", "result": "59.3% ± 4.3%"},
      {"measurement": "effect on TRPV1 when administered alone", "setting": "[3]; 10 μM, in the absence of capsaicin", "result": "did not show any significant effect; also recorded: Lack of effect"},
      {"measurement": "effect on TRPV1 when applied prior to capsaicin", "setting": "[3]; applied prior to any stimulation of capsaicin, data not shown", "result": "no activity was seen"},
      {"measurement": "IC50", "setting": "[3]; co-applied with capsaicin (2 μM), −90 mV, ND96 pH 7.4, 18–22 °C, mean ± standard error, n ≥ 3, read-out: IC50, inhibition of capsaicin-induced TRPV1 current", "result": "6900 ± 400", "unit": "nM"},
      {"measurement": "effect on TRPV1 channel (conclusion)", "setting": "[3]; electrophysiological data", "result": "strongly inhibits the TRPV1 channel"},
      {"measurement": "Ki", "setting": "[4]; Dixon method, BAPNA substrate, 133 and 65 mM, enzyme 215 nM, peptide 0 up to 3.2 mM, three parallel experiments", "result": 200, "unit": "nM"},
      {"measurement": "Trypsin inhibitory activity of HPLC fraction", "setting": "[4]; fraction marked rHCRG21 after RP-HPLC", "result": "Trypsin inhibitory activity was detected"},
      {"measurement": "activity on Kv1.3", "setting": "[5]", "result": "did not exert any activity"},
      {"measurement": "activity on Shaker IR", "setting": "[6]", "result": "did not exert any activity"},
      {"measurement": "activity on hERG", "setting": "[7]", "result": "did not exert any activity"},
      {"measurement": "activity on Kv1.4", "setting": "[8]", "result": "did not exert any activity"},
      {"measurement": "Ki", "setting": "[9]", "result": 700, "unit": "nM"},
      {"measurement": "activity on Kv1.1", "setting": "[10]", "result": "did not exert any activity"},
      {"measurement": "activity on Kv1.2", "setting": "[11]", "result": "did not exert any activity"}
    ]}
  ]
}
